# Square brackets hold non-standard residues; d marks the D form. Peptide text beside a SMILES is read from it. * marks the point of attachment. His(Trt) = N[C@@H](Cc1cn(C(c2ccccc2)(c2ccccc2)c2ccccc2)cn1)C(=O)O; dHis(Trt) = N[C@H](Cc1cn(C(c2ccccc2)(c2ccccc2)c2ccccc2)cn1)C(=O)O; His(τ-CHPh2) = N[C@@H](Cc1cn(C(c2ccccc2)c2ccccc2)cn1)C(=O)O; Tyr(3-Cl) = N[C@@H](Cc1ccc(O)c(Cl)c1)C(=O)O; dPhe(4-Me) = Cc1ccc(C[C@@H](N)C(=O)O)cc1; dPhe(4-F) = N[C@H](Cc1ccc(F)cc1)C(=O)O; Palmitoyl = CCCCCCCCCCCCCCCC(=O)*; Octanoyl = CCCCCCCC(=O)*
# Target: T1, GPR39 (Homo sapiens, UniProt O43194)
# T1 sequence (O43194 1-453): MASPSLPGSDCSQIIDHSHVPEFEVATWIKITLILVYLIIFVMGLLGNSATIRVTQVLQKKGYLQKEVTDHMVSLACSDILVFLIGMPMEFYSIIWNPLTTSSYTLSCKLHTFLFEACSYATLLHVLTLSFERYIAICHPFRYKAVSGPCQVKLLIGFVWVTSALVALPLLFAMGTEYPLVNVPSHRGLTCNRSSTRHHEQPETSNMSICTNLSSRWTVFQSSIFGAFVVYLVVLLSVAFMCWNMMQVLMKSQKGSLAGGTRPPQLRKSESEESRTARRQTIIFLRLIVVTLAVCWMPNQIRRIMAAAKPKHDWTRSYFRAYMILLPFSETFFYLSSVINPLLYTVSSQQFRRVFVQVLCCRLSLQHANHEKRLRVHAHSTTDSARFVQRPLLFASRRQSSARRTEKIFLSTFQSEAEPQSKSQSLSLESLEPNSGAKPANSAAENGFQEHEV
# Procedure: Specifically, the fibroblast cell line CV-1 (1×10^5 cells/ml, Korea Cell Line Bank) was cultured in a 96 well cell culture plate for 24 hours, and then treated with GPR39 inserted into adenovirus and SRE (serum response element) luciferase at 50 MOI (multiplicity of infection) and 25 MOI virus for 3 hours, respectively, and then cultured for 24 hours.
row,Structure (SMILES),ECmax (-fold induction over basal)
1,"CCCCCCCC(=O)NCCCC[C@H](NC(=O)[C@@H](N)Cc1cn(C(c2ccccc2)(c2ccccc2)c2ccccc2)cn1)C(=O)N[C@@H](Cc1ccccc1)C(=O)O [HKFY-49, N6-octanoyl-N2-(Nt-trityl-L-histidyl)-L-lysyl-L-phenylalanine] (H-[His(Trt)]-Lys(Octanoyl)-Phe-OH)",18.3 ± 1.8 -fold induction over basal
2,"CCCCCCCC(=O)NCCCC[C@H](NC(=O)[C@@H](N)Cc1cn(C(c2ccccc2)(c2ccccc2)c2ccccc2)cn1)C(=O)N[C@@H](Cc1ccccc1)C(=O)N[C@@H](CO)C(=O)O [HKFY-50, N6-octanoyl-N2-(Nt-trityl-L-histidyl)-L-lysyl-L-phenylalanyl-L-serine] (H-[His(Trt)]K(Octanoyl)FS-OH)",16.2 ± 1.5 -fold induction over basal
3,"CCCCCCCC(=O)NCCCC[C@H](NC(=O)[C@@H](N)Cc1cn(-c2ccccc2)c(-c2ccccc2)n1)C(=O)N[C@H](Cc1ccc(C)cc1)C(=O)N[C@@H](Cc1ccc(O)cc1)C(=O)O [HKFY-59, ((R)-2-((S)-2-((S)-2-amino-3-(1,2-diphenyl-1H-imidazol-4-yl)propanamido)-6-octanamidohexanamido)-3-(p-tolyl)propanoyl)-L-tyrosine]",6.76 ± 2.2 -fold induction over basal
4,"CCCCCCCC(=O)NCCCC[C@H](NC(=O)[C@H](CO)NC(=O)CNC(=O)[C@@H](N)Cc1cn(C(c2ccccc2)(c2ccccc2)c2ccccc2)cn1)C(=O)N[C@@H](Cc1ccccc1)C(=O)N[C@@H](Cc1ccc(O)cc1)C(=O)O [HKFY-53, N6-octanoyl-N2-(Nt-trityl-L-histidylglycyl-L-seryl)-L-lysyl-L-phenylalanyl-L-tyrosine] (H-[His(Trt)]GSK(Octanoyl)FY-OH)",8 ± 2.12 -fold induction over basal
5,"CCCCCCCC(=O)NCCCC[C@H](NC(=O)[C@@H](N)Cc1cn(C(c2ccccc2)c2ccc(F)cc2F)cn1)C(=O)N[C@H](Cc1ccc(C)cc1)C(=O)N[C@@H](Cc1ccc(O)cc1)C(=O)O (stereo partly drawn) [HKFY-32, ((2R)-2-((2S)-2-((2S)-2-amino-3-(1-((2,4-difluorophenyl)(phenyl)methyl)-1H-imidazol-4-yl)propanamido)-6-octanamidohexanamido)-3-(p-tolyl)propanoyl)-L-tyrosine]",21.5 ± 2.7 -fold induction over basal
6,"CCCCCCCC(=O)NCCCC[C@H](NC(=O)[C@@H](N)Cc1cn(CCc2ccccc2)cn1)C(=O)N[C@@H](Cc1ccccc1)C(=O)N[C@@H](Cc1ccc(O)cc1)C(=O)O [HKFY-9, N6-octanoyl-N2-(Nt-phenethyl-L-histidyl)-L-lysyl-L-phenylalanyl-L-tyrosine]",21 ± 2.52 -fold induction over basal
7,"CCCCCCCCCCCCCCCC(=O)NCCCC[C@H](NC(=O)[C@@H](N)Cc1cn(C(c2ccccc2)(c2ccccc2)c2ccccc2)cn1)C(=O)N[C@@H](Cc1ccccc1)C(=O)N[C@@H](Cc1ccc(O)cc1)C(=O)O [HKFY-27, N6-palmitoyl-N2-(Nt-trityl-L-histidyl)-L-lysyl-L-phenylalanyl-L-tyrosine] (H-[His(Trt)]K(Palmitoyl)FY-OH)",20.4 ± 0.57 -fold induction over basal
8,"CCCCCCCC(=O)NCCCC[C@H](NC(=O)[C@@H](N)Cc1cn(C(c2ccccc2)(c2ccccc2)c2ccccc2)cn1)C(=O)N[C@H](Cc1ccc(F)cc1)C(=O)N[C@@H](Cc1ccc(O)cc1)C(=O)O [HKFY-28, ((R)-2-((S)-2-((S)-2-amino-3-(1-trityl-1H-imidazol-4-yl)propanamido)-6-octanamidohexanamido)-3-(4-fluorophenyl)propanoyl)-L-tyrosine] (H-[His(Trt)]K(Octanoyl)[dPhe(4-F)]Y-OH)",22.95 ± 2.58 -fold induction over basal
9,"CCCCCCCC(=O)NCCCC[C@H](NC(=O)[C@@H](N)Cc1cn(C(c2ccccc2)(c2ccccc2)c2ccccc2)cn1)C(=O)N[C@@H](Cc1ccccc1)C(=O)N[C@@H](Cc1ccc(O)cc1)C(=O)N[C@@H](Cc1c[nH]cn1)C(=O)N[C@@H](CCC(N)=O)C(=O)N[C@@H](CCC(N)=O)C(=O)N[C@@H](C)C(=O)N[C@@H](CCCNC(=N)N)C(=O)N[C@@H](Cc1ccccc1)C(N)=O [HKFY-42, (S)-2-((2S,5S,8S,11S)-2-((1H-imidazol-4-yl)methyl)-11-((S)-2-amino-3-(1-trityl-1H-imidazol-4-yl)propanamido)-8-benzyl-5-(4-hydroxybenzyl)-4,7,10,17-tetraoxo-3,6,9,16-tetraazatetracosanamido)-N1-((S)-5-amino-1-(((S)-1-(((S)-1-(((S)-1-amino-1-oxo-3-phenylpropan-2-yl)amino)-5-guanidino-1-oxopentan-2-yl)amino)-1-oxopropan-2-yl)amino)-1,5-dioxopentan-2-yl)pentanediamide] (H-[His(Trt)]K(Octanoyl)FYHQQARF-NH2)",11.8 ± 0.02 -fold induction over basal
10,"CCCCCCCC(=O)NCCCC[C@H](NC(=O)[C@@H](N)Cc1cn(C(c2ccccc2)(c2ccccc2)c2ccccc2)cn1)C(=O)N[C@@H](CC(C)C)C(=O)N[C@@H](Cc1ccc(O)cc1)C(=O)O [HKFY-51, N6-octanoyl-N2-(Nt-trityl-L-histidyl)-L-lysyl-L-leucyl-L-tyrosine] (H-[His(Trt)]K(Octanoyl)LY-OH)",14.4 ± 1.9 -fold induction over basal
11,"CCCCCCCC(=O)NCCCC[C@H](NC(=O)[C@@H](N)Cc1cn(C(c2ccccc2)(c2ccccc2)c2ccccc2)cn1)C(=O)N[C@@H](Cc1ccccc1)C(=O)N[C@@H](Cc1ccc(O)cc1)C(=O)N[C@@H](Cc1c[nH]c2ccccc12)C(=O)O [HKFY-44, N6-octanoyl-N2-(Nt-trityl-L-histidyl)-L-lysyl-L-phenylalanyl-L-tyrosyl-L-tryptophan] (H-[His(Trt)]K(Octanoyl)FYW-OH)",20 ± 0.47 -fold induction over basal
12,"CCCCCCCC(=O)NCCCC[C@H](NC(=O)[C@@H](N)Cc1cn(C(c2ccccc2)c2ccc(OC)cc2)cn1)C(=O)N[C@@H](Cc1ccccc1)C(=O)N[C@@H](Cc1ccc(O)cc1)C(=O)O (stereo partly drawn) [HKFY-20, N2-(Nt-((4-methoxyphenyl)(phenyl)methyl)-L-histidyl)-N6-octanoyl-L-lysyl-L-phenylalanyl-L-tyrosine]",20.26 ± 2.7 -fold induction over basal
13,"CCCCCCCC(=O)NCCCC[C@H](NC(=O)[C@H](N)Cc1cn(C(c2ccccc2)(c2ccccc2)c2ccccc2)cn1)C(=O)N[C@@H](Cc1ccccc1)C(=O)N[C@@H](Cc1ccc(O)cc1)C(=O)O [HKFY-4, N6-octanoyl-N2-(Nt-trityl-D-histidyl)-L-lysyl-L-phenylalanyl-L-tyrosine] (H-[dHis(Trt)]K(Octanoyl)FY-OH)",16.8 ± 1.87 -fold induction over basal
14,"CCCCCCCC(=O)NCCCC[C@H](NC(=O)[C@@H](N)Cc1cn([C@H](c2ccccc2)c2ccc(Cl)cc2)cn1)C(=O)N[C@@H](Cc1ccccc1)C(=O)N[C@@H](Cc1ccc(O)cc1)C(=O)O [HKFY-21, N2-(Nt-((R)-(4-chlorophenyl)(phenyl)methyl)-L-histidyl)-N6-octanoyl-L-lysyl-L-phenylalanyl-L-tyrosine]",18.3 ± 2.5 -fold induction over basal
15,"CCCCCCCC(=O)NCCCC[C@H](NC(=O)[C@@H](N)Cc1cn(CCc2ccccc2)cn1)C(=O)N[C@@H](Cc1ccccc1)C(=O)N[C@@H](Cc1ccc(O)cc1)C(=O)O [HKFY-19, N6-octanoyl-N2-(Nt-phenethyl-L-histidyl)-L-lysyl-L-phenylalanyl-L-tyrosine]",18 ± 1.7 -fold induction over basal
16,"CCCCCCCC(=O)NCCCC[C@H](NC(=O)[C@@H](N)Cc1cn(S(=O)(=O)c2ccc(C)cc2)cn1)C(=O)N[C@H](Cc1ccc(C)cc1)C(=O)N[C@@H](Cc1ccc(O)cc1)C(=O)O [HKFY-75, ((R)-2-((S)-2-((S)-2-amino-3-(1-tosyl-1H-imidazol-4-yl)propanamido)-6-octanamidohexanamido)-3-(p-tolyl)propanoyl)-L-tyrosine]",15.9 ± 4.12 -fold induction over basal
17,"CCCCCCCC(=O)NCCCC[C@H](NC(=O)[C@H](N)Cc1cn(C(c2ccccc2)c2ccccc2)cn1)C(=O)N[C@H](Cc1ccc(C)cc1)C(=O)N[C@@H](Cc1ccc(O)cc1)C(=O)O [HKFY-62, ((R)-2-((S)-2-((R)-2-amino-3-(1-benzhydryl-1H-imidazol-4-yl)propanamido)-6-octanamidohexanamido)-3-(p-tolyl)propanoyl)-L-tyrosine]",28.1 ± 2.1 -fold induction over basal
18,"CCCCCCCC(=O)NCCCC[C@H](NC(=O)[C@@H](N)Cc1cn(C(c2ccccc2)(c2ccccc2)c2ccccc2)cn1)C(=O)N[C@@H](Cc1ccc(O)cc1)C(=O)N[C@@H](Cc1ccc(O)cc1)C(=O)O [HKFY-48, N6-octanoyl-N2-(Nt-trityl-L-histidyl)-L-lysyl-L-tyrosyl-L-tyrosine] (H-[His(Trt)]K(Octanoyl)YY-OH)",14.4 ± 2.7 -fold induction over basal
19,"CCCCCCCC(=O)NCCCC[C@H](NC(=O)[C@@H](N)Cc1cn(C(c2ccccc2)c2ccccc2)cn1)C(=O)N[C@H](Cc1ccc(C)cc1)C(=O)N[C@@H](Cc1ccc(O)c(Cl)c1)C(=O)O [HKFY-67, (S)-2-((R)-2-((S)-2-((S)-2-amino-3-(1-benzhydryl-1H-imidazol-4-yl)propanamido)-6-octanamidohexanamido)-3-(p-tolyl)propanamido)-3-(3-chloro-4-hydroxyphenyl)propanoic acid] (H-[His(τ-CHPh2)]K(Octanoyl)[dPhe(4-Me)][Tyr(3-Cl)]-OH)",10.2 ± 1.51 -fold induction over basal

# Source: US20230212222A1 (ANYGEN CO., LTD., priority 2020, published 2023)
